ChEMBL document CHEMBL3232996, “Synthesis and biological evaluation of novel (123)I-labeled 4-(4-iodophenyl)butanoyl-L-prolyl-(2S)-pyrrolidines for imaging prolyl oligopeptidase in vivo” (Eur J Med Chem, 2014)

Assays:
Prolyl endopeptidase [1] = molecular target: Prolyl endopeptidase (Mus musculus, UniProt Q9QUR6); experiment: Competitive inhibition of mouse brain prolyl oligopeptidase; type: tissue-based
Prolyl endopeptidase [2] = molecular target: Prolyl endopeptidase (Sus scrofa, UniProt P23687); experiment: Inhibition of porcine prolyl oligopeptidase using Z-Gly-Pro-AMC as substrate after 60 mins by double-reciprocal plot analysis; conditions: read-out: Ki(app)
Chain of Prolyl endopeptidase (Sus scrofa, UniProt P23687) (P23687 whole entry): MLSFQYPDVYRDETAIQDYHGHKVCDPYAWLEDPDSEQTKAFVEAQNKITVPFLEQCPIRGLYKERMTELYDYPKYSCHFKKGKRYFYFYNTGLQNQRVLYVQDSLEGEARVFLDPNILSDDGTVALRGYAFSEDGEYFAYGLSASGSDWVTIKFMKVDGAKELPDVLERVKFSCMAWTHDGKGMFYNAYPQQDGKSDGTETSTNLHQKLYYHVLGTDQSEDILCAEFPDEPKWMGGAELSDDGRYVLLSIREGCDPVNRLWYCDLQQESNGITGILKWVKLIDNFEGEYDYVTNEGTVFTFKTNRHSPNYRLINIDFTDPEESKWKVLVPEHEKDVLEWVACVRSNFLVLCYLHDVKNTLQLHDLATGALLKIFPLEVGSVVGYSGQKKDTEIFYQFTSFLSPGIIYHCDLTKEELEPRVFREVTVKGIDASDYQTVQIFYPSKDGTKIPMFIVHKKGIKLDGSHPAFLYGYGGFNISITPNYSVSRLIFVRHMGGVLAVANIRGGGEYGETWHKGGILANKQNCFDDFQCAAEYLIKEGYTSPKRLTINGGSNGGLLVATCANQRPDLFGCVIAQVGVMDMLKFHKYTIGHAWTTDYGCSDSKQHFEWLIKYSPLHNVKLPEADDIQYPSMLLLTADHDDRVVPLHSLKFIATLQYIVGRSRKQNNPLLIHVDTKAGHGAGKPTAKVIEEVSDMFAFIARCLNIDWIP

Chain of Prolyl endopeptidase (Mus musculus, UniProt Q9QUR6) (Q9QUR6 whole entry): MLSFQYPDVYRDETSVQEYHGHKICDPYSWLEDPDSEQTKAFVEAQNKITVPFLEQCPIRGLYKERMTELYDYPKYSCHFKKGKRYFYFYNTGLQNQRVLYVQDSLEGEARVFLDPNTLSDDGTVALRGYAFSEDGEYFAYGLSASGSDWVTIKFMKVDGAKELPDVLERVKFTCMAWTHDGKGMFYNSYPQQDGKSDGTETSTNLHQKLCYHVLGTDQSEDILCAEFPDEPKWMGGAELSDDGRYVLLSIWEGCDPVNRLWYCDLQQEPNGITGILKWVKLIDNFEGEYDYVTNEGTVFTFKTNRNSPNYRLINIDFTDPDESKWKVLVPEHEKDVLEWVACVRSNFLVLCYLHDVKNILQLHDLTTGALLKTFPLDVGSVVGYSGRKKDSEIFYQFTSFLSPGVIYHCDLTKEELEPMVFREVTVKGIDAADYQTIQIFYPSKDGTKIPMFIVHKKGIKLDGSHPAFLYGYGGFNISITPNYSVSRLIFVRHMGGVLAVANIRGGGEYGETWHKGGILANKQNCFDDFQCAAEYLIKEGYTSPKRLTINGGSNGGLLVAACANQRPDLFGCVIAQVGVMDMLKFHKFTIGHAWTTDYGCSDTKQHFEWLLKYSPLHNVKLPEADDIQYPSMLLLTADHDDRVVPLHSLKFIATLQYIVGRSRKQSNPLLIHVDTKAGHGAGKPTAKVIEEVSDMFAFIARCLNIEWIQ

| IC50 (Prolyl endopeptidase [1]) | Ki (Prolyl endopeptidase [2]) | SMILES |
| --- | --- | --- |
| 3.1 nM | – | [11CH3]Nc1ccc(CCCC(=O)N2CCC[C@H]2C(=O)N2CCCC2)cc1 |
| – | 22 nM | O=C([C@@H]1CCCN1C(=O)CCCc1ccc(I)cc1)N1CCCC1 |
| – | 4.2 nM | N#C[C@@H]1CCCN1C(=O)[C@@H]1CCCN1C(=O)CCCc1ccc(I)cc1 |
